This note sets out measurements from US10377743B2, “Inhibitors of RAS and methods of use thereof” (Araxes Pharma LLC, priority 2016, dated 2019).

SMILES strings stand for the structures.

The experiment deals with T1, KRAS G12C 1-169, his-tagged protein, GDP-loaded (Homo sapiens, UniProt P01116, G12C).
T1 construct: KRAS G12C 1-169, his-tagged protein, GDP-loaded
The experiment can be described thus: Biochemical assay: covalent binding (modification %) to KRAS G12C by mass spectrometry. The settings on record: 2 hour incubation period, 8 μM compound (compounds 21-92). On the procedure:
Test compounds were prepared as 10 mM stock solutions in DMSO (Fisher cat# BP-231-100). KRAS G12C 1-169, his-tagged protein, GDP-loaded was diluted to 2 μM or 0.5 μM in buffer (20 mM Hepes, 150 mM NaCl, 1 mM MgCl2). Compounds were tested for activity as follows:
Compounds were diluted to 50× final test concentration in DMSO in 96-well storage plates. Compound stock solutions were vortexed before use and observed carefully for any sign of precipitation. Dilutions were as follow: • For 100 μM final compound concentration, compounds were diluted to 5000 μM (5 μL 10 mM compound stock+5 μL DMSO and mixed well by pipetting. • For 30 μM final compound concentration, compounds were diluted to 1500 μM (3 μL 10 mM compound stock+17 μL DMSO) and mixed well by pipetting. • For 10 μM final compound concentration, compounds were diluted to 500 μM (2 μL 10 mM compound stock+38 μL DMSO) and mixed well by pipetting. 49 μL of the stock protein solution was added to each well of a 96-well PCR plate (Fisher cat#1423027). 1 μl of the diluted 50× compounds were added to appropriate wells in the PCR plate using 12-channel pipettor. Reactions were mixed carefully and thoroughly by pipetting up/down with a 200 μL multi-channel pipettor. The plate was sealed well with aluminum plate seal, and stored in drawer at room temperature for 10 minutes, 30 minutes, 2 hours or 24 hours. 5 μL of 2% formic acid (Fisher cat# A117) in de-ionized H2O was then added to each well followed by mixing with a pipette. The plate was then resealed with aluminum seal and stored on dry ice until analyzed as described below.
The above described assays were analyzed by mass spectrometry according to one of the following two procedures:
The MS instrument is set to positive polarity, 2 GHz resolution, and low mass (1700) mode and allowed to equilibrate for 30 minutes. The instrument is then calibrated, switched to acquisition mode and the appropriate method loaded.
After another 30 minute equilibration time, a blank batch (i.e., buffer) is run to ensure equipment is operating properly. The samples are thawed at 37° C. for 10 minutes, briefly centrifuged, and transfer to the bench top. Wells A1 and H12 are spiked with 1 μL 500 μM internal standard peptide, and the plates centrifuged at 2000×g for 5 minutes. The method is then run and masses of each individual well recorded.
The masses (for which integration data is desired) for each well are pasted into the platemap and exported from the analysis. Masses for the internal standards are exported as well. The data at 50 ppm is extracted for the +19 charge state, and identity of well A1 is assigned using the internal standard spike and integrated. Peak data is exported as a TOF list and the above steps are repeated individually, for the +20, 21, 22, 23, 24, and 25 charge states.
The masses and peak intensities of KRAS G12C protein species were measured using a Dionex RSLCnano system (Thermo Scientific) connected to a Q Exactive Plus mass spectrometer (Thermo Scientific).
[…] of sample was each loaded onto a Aeris™ 3.6 μm WIDEPORE C4 200 Å, LC Column 50×2.1 mm column maintained at 40° C. at a flow rate of 600 μL/min with 20% Solvent A (0.1% formic acid in H2O) and 80% Solvent B (0.1% formic acid in acetonitrile). The liquid chromatography conditions were 20% solvent B for 1 minute, 20% to 60% solvent B for 1.5 minutes, 60% to 90% solvent for 0.5 minute, 90% solvent B for 0.2 minute, 90% to 20% solvent B for 0.2 minute, and then equilibrated for 1.6 minute before the following sample injection. The flow rate was maintained at 600 μL/min throughout the sample analysis.
The mass spectrometer was operated in profile mode at a resolution of 17500, 5 microscans, using 50 msec max injection time and an AGC target of 1×10^6, and a full mass range from 800-1850 m/z was recorded. The HCD trapping gas was optimized for maximum sensitivity for intact proteins. […]
As to `C=CC(=O)N1CC(N2Cc3ccc(-c4cccc(C(N)=O)c4)cc3C2=O)C1` [Compound 50, 3-(2-(1-acryloylazetidin-3-yl)-3-oxoisoindolin-5-yl)benzamide], the Binding % entry was “+ (+ indicates binding activity up to 10%)”.
On to `C=CC(=O)N1CC(N2Cc3ccc(-c4cc(O)cc5ccccc45)cc3C2)C1` [Compound 51, 1-(3-(5-(3-hydroxynaphthalen-1-yl)isoindolin-2-yl)azetidin-1-yl)prop-2-en-1-one], for which the Binding % result is recorded as “+ (+ indicates binding activity up to 10%)”.
For `C=CC(=O)N1CC(N2Cc3ccc(-c4ccc(NC)cc4)cc3C2=O)C1` [Compound 52, 2-(1-acryloylazetidin-3-yl)-6-(4-(methylamino)phenyl)isoindolin-1-one], the Binding % entry is given as “+ (+ indicates binding activity up to 10%)”.
In the case of `C=CC(=O)N1CC(N2Cc3ccc(-c4cccc5cn[nH]c45)cc3C2=O)C1` [Compound 53, 2-(1-acryloylazetidin-3-yl)-6-(1H-indazol-7-yl)isoindolin-1-one], the Binding % result is on record as “+ (+ indicates binding activity up to 10%)”.
The same measure for `C=CC(=O)N1CC(N2Cc3ccc(-c4cccc(O)n4)cc3C2=O)C1` [Compound 54, 2-(1-acryloylazetidin-3-yl)-6-(6-hydroxypyridin-2-yl)isoindolin-1-one]: “+ (+ indicates binding activity up to 10%)”; for `C=CC(=O)N1CC(N2Cc3ccc(-c4cccc(C#N)c4)cc3C2=O)C1` [Compound 55, 3-(2-(1-acryloylazetidin-3-yl)-3-oxoisoindolin-5-yl)benzonitrile]: “+ (+ indicates binding activity up to 10%)”; for `C=CC(=O)N1CC(N2Cc3ccc(-c4c(C)ccc5[nH]ncc45)cc3C2)C1` [Compound 56, 1-(3-(5-(5-methyl-1H-indazol-4-yl)isoindolin-2-yl)azetidin-1-yl)prop-2-en-1-one]: “+ (+ indicates binding activity up to 10%)”.
For the compound `C=CC(=O)N1CC(N2Cc3ccc(N4CCc5ccccc54)cc3C2=O)C1` [Compound 57, 2-(1-acryloylazetidin-3-yl)-6-(indolin-1-yl)isoindolin-1-one], the Binding % result is reported as “+ (+ indicates binding activity up to 10%)”.
Turning to `C=CC(=O)N1CC(N2Cc3ccc(-c4cccc(NC)c4)cc3C2=O)C1` [Compound 58, 2-(1-acryloylazetidin-3-yl)-6-(3-(methylamino)phenyl)isoindolin-1-one], the Binding % entry was “+ (+ indicates binding activity up to 10%)”.
`C=CC(=O)N1CC(N2Cc3ccc(N4CCC(O)C4)cc3C2=O)C1` (centres unmarked) [Compound 59, 2-(1-acryloylazetidin-3-yl)-6-(3-hydroxypyrrolidin-1-yl)isoindolin-1-one]: the Binding % entry was “+ (+ indicates binding activity up to 10%)”.
Consider `C=CC(=O)N1CC(N2Cc3ccc(-c4ccccc4NC)cc3C2=O)C1` [Compound 60, 2-(1-acryloylazetidin-3-yl)-6-(2-(methylamino)phenyl)isoindolin-1-one], for which the Binding % result is “+ (+ indicates binding activity up to 10%)”.
With `C=CC(=O)N1CC(N2Cc3ccc(-c4ccccc4C#N)cc3C2=O)C1` [Compound 61, 2-(2-(1-acryloylazetidin-3-yl)-3-oxoisoindolin-5-yl)benzonitrile], the Binding % result is recorded as “+ (+ indicates binding activity up to 10%)”.
On to `C=CC(=O)N1CC(N2Cc3ccc(N4CCC(N(C)C)C4)cc3C2=O)C1` (centres unmarked) [Compound 62, 2-(1-acryloylazetidin-3-yl)-6-(3-(dimethylamino)pyrrolidin-1-yl)isoindolin-1-one], for which the Binding % result is listed as “+ (+ indicates binding activity up to 10%)”.
With `C=CC(=O)N1CC(N2Cc3cc(C(N)=O)c(-c4cc(O)cc5ccccc45)cc3C2=O)C1` [Compound 63, 2-(1-acryloylazetidin-3-yl)-6-(3-hydroxynaphthalen-1-yl)-1-oxoisoindoline-5-carboxamide], the Binding % entry is given as “++ (++ indicates binding activity from 10 to 50%)”.
Regarding `C=CC(=O)N1CC(N2Cc3cc(C#N)c(-c4cc(O)cc5ccccc45)cc3C2=O)C1` [Compound 64, 2-(1-acryloylazetidin-3-yl)-6-(3-hydroxynaphthalen-1-yl)-1-oxoisoindoline-5-carbonitrile], the Binding % result is “+++ (+++ indicates binding activity greater than 50%)”.
Regarding `C=CC(=O)N1CC(N2Cc3ccc(-c4c(C)ccc5[nH]nc(N)c45)cc3C2=O)C1` [Compound 65, 2-(1-acryloylazetidin-3-yl)-6-(3-amino-5-methyl-1H-indazol-4-yl)isoindolin-1-one], the Binding % result is “+++ (+++ indicates binding activity greater than 50%)”.
For the compound `C=CC(=O)N1CC(N2Cc3ccc(-c4cn[nH]c4)cc3C2=O)C1` [Compound 66, 2-(1-acryloylazetidin-3-yl)-6-(1H-pyrazol-4-yl)isoindolin-1-one], the Binding % entry is given as “+ (+ indicates binding activity up to 10%)”.
As to `C=CC(=O)N1CC(N2Cc3ccc(-c4cc(O)cc5ccccc45)c(F)c3C2=O)C1` [Compound 67, 2-(1-acryloylazetidin-3-yl)-7-fluoro-6-(3-hydroxynaphthalen-1-yl)isoindolin-1-one], the Binding % entry is listed as “+++ (+++ indicates binding activity greater than 50%)”.
In the case of `C=CC(=O)N1CC(N2Cc3ccc(-c4cccnc4O)cc3C2=O)C1` [Compound 68, 2-(1-acryloylazetidin-3-yl)-6-(2-hydroxypyridin-3-yl)isoindolin-1-one], the Binding % result is recorded as “+ (+ indicates binding activity up to 10%)”.
Consider `C=CC(=O)N1CC(N2Cc3ccc(-c4c(C)ccc5[nH]ncc45)c(F)c3C2=O)C1` [Compound 69, 2-(1-acryloylazetidin-3-yl)-7-fluoro-6-(5-methyl-1H-indazol-4-yl)isoindolin-1-one], for which the Binding % entry is “++ (++ indicates binding activity from 10 to 50%)”.
As for `C=CC(=O)N1CC(N2Cc3cc(Cl)c(-c4cc(O)cc5ccccc45)cc3C2=O)C1` [Compound 70, 2-(1-acryloylazetidin-3-yl)-5-chloro-6-(3-hydroxynaphthalen-1-yl)isoindolin-1-one], the Binding % result is on record as “+++ (+++ indicates binding activity greater than 50%)”.
On to `C=CC(=O)N1CC(N2Cc3ccc(NC4CCCN(C(C)=O)C4)cc3C2=O)C1` (centres unmarked) [Compound 71, 6-((1-acetylpiperidin-3-yl)amino)-2-(1-acryloylazetidin-3-yl)isoindolin-1-one], for which the Binding % result was “+ (+ indicates binding activity up to 10%)”.
For the compound `C=CC(=O)N1CC(N2Cc3ccc(N4CCCC(O)C4)cc3C2=O)C1` (centres unmarked) [Compound 72, 2-(1-acryloylazetidin-3-yl)-6-(3-hydroxypiperidin-1-yl)isoindolin-1-one], the Binding % result is “+ (+ indicates binding activity up to 10%)”.
As for `C=CC(=O)N1CC(N2Cc3ccc(-c4c(O)ccc5ccccc45)cc3C2=O)C1` [Compound 73, 2-(1-acryloylazetidin-3-yl)-6-(2-hydroxynaphthalen-1-yl)isoindolin-1-one], the Binding % result is on record as “++ (++ indicates binding activity from 10 to 50%)”.
Consider `C=CC(=O)N1CC(N2Cc3cc(Cl)c(-c4c(C)ccc5[nH]ncc45)cc3C2=O)C1` [Compound 74, 2-(1-acryloylazetidin-3-yl)-5-chloro-6-(5-methyl-1H-indazol-4-yl)isoindolin-1-one], for which the Binding % entry is “++ (++ indicates binding activity from 10 to 50%)”.
In the case of `C=CC(=O)N1CC(N2Cc3ccc(NC4CCN(C(C)=O)C4)cc3C2=O)C1` (centres unmarked) [Compound 75, 6-((1-acetylpyrrolidin-3-yl)amino)-2-(1-acryloylazetidin-3-yl)isoindolin-1-one], the Binding % result was “+ (+ indicates binding activity up to 10%)”.
